Source: patent publication US11008346B2, “Beta-lactamase inhibitors” (priority 2014, dated 2021)

How the values were obtained:
p99 AmpC β-lactamase = biological target: T1, p99 AmpC β-lactamase (Enterobacter cloacae, UniProt P05364); test: β-lactamase enzyme inhibition, p99 AmpC; type: biochemical
T1 construct: made in house; host or cells: E. coli BL21(DE3)
Procedure, shortened: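 Native untagged E. cloacae p99 AmpC was expressed in E. coli BL21(DE3) and purified by cation exchange and gel filtration. Enzyme was preincubated with inhibitor at 37°C for 15 min.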

[1] = test system: P. aeruginosa Ps296 expressing VIM-2; test: broth microdilution MIC, P. aeruginosa VIM-2; type: cell-based; conditions: Fixed Mero (meropenem) 4 μg/mL
Procedure, shortened: (§1)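 Visual MIC readout after 16-20 hours at 37° C, reflecting compound concentration that restores growth inhibition by a beta-lactam held constant at 4 μg/mL. Compound was titrated 2-fold, 32 to 0.25 μg/mL final, in cation-adjusted Mueller Hinton broth.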

OXA-1 β-lactamase = biological target: T2, OXA-1 β-lactamase (Escherichia coli, UniProt P13661); test: β-lactamase enzyme inhibition, OXA-1; type: biochemical; conditions: Nitrocefin 100 μM, 486 nm; 15 min at 37° C. preincubation; read-out: IC50 OXA-1 (Class D)
T2 construct: made in house; host or cells: E. coli BL21(DE3)
T2 sequence (P13661 26-276): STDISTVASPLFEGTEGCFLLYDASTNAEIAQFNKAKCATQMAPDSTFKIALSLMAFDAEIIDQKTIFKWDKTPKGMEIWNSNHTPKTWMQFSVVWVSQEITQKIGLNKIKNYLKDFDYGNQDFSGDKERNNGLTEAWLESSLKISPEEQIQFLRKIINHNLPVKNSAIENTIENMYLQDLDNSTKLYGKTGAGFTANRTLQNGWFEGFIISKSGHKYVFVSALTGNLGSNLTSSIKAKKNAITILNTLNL
Procedure, shortened: (§2)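 Native untagged β-lactamases were expressed in E. coli BL21(DE3) and purified. Enzyme was preincubated with inhibitor for 15 min at 37° C., then substrate hydrolysis was followed: nitrocefin 100 μM for p99 AmpC and OXA-1 (486 nm, 10 min), imipenem for KPC-2 (300 nm), cefotaxime for SHV-5 (260 nm). IC50 was derived from initial rates relative to uninhibited controls.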

[2] = test system: E. cloacae 144200 expressing Class C P99 AmpC; test: broth microdilution MIC, E. cloacae P99; type: cell-based; conditions: Fixed CAZ (ceftazidime) 4 μg/mL
Procedure, shortened: as §1

[3] = test system: S. aureus MSSA-7 producing penicillinase PC-1; test: broth microdilution MIC, S. aureus PC-1; type: cell-based; conditions: Fixed Pip (piperacillin) 4 μg/mL
Procedure, shortened: as §1

[4] = test system: E. coli ESBL4 expressing CTX-M-15; test: broth microdilution MIC, E. coli CTX-M-15; type: cell-based; conditions: Fixed CAZ (ceftazidime) 4 μg/mL
Procedure, shortened: as §1

[5] = biological target: T3, VIM-2 metallo β-lactamase (Pseudomonas aeruginosa, UniProt Q9K2N0); test: β-lactamase enzyme inhibition, VIM-2; type: biochemical; conditions: Nitrocefin 100 μM, 486 nm; 15 min at 37° C. preincubation; read-out: IC50 VIM-2 (Class B)
T3 construct: made in house; host or cells: E. coli BL21(DE3)
Procedure, shortened: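 VIM-2 purified by Q sepharose anion exchange (50 mM Hepes pH 7.5, 0-600 mM NaCl gradient, two runs, >90% purity). Enzyme preincubated with inhibitor 15 min at 37° C; nitrocefin 100 μM final, absorbance at 486 nm followed 10 min. IC50 from initial hydrolysis rates versus inhibitor-free controls.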

[6] = test system: K. pneumoniae 156319 expressing KPC-3; test: broth microdilution MIC, K. pneumoniae KPC-3; type: cell-based; conditions: Fixed Mero (meropenem) 4 μg/mL
Procedure, shortened: as §1

[7] = test system: K. pneumoniae A-1797 expressing KPC-2 and VIM-4; test: broth microdilution MIC, K. pneumoniae KPC-2 and VIM-4; type: cell-based; conditions: Fixed Mero (meropenem) 4 μg/mL
Procedure, shortened: as §1

KPC-2 β-lactamase = biological target: T4, KPC-2 β-lactamase (Klebsiella pneumoniae, UniProt Q9F663); test: β-lactamase enzyme inhibition, KPC-2; type: biochemical; conditions: imipenem substrate, 300 nm; 15 min at 37° C. preincubation; read-out: IC50 KPC-2 (Class A)
T4 construct: made in house; host or cells: E. coli BL21(DE3)
T4 sequence (Q9F663 25-293, looked up): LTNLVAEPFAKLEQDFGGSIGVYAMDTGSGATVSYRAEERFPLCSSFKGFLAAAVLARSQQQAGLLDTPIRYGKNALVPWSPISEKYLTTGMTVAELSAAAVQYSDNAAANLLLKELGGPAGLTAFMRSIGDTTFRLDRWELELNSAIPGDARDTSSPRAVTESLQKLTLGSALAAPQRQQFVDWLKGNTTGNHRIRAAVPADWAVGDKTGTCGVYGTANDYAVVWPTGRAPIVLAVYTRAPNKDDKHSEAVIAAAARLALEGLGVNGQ
Procedure, shortened: as §2

SHV-5 β-lactamase = biological target: T5, SHV-5 β-lactamase (Klebsiella pneumoniae, UniProt P0A3M1); test: β-lactamase enzyme inhibition, SHV-5; type: biochemical
T5 construct: made in house; host or cells: E. coli BL21(DE3)
T5 sequence (P0A3M1 22-286): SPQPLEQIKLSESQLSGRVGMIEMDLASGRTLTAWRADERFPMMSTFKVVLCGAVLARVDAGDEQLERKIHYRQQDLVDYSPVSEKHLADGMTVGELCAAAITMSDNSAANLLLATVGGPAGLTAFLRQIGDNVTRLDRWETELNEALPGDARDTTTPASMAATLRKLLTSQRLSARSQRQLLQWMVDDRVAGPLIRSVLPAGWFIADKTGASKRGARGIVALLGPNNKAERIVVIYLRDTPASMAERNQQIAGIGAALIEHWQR
Procedure, shortened: as §2

T1 sequence (P05364 21-381): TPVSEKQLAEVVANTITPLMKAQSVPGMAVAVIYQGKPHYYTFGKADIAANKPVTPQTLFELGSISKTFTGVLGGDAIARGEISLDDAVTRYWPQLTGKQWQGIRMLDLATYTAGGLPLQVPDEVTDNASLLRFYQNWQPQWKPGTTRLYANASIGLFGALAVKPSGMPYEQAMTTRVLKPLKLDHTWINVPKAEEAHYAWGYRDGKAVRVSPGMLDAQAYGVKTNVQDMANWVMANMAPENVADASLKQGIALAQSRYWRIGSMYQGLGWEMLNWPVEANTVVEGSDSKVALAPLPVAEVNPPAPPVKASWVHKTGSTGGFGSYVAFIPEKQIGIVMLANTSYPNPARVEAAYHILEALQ

Row | SMILES | IC50 (p99 AmpC β-lactamase) | MIC of exemplary compounds in presence of fixed β-lactams, P. aerug. Ps296 VIM-2 [1] | IC50 (OXA-1 β-lactamase) | MIC of exemplary compounds in presence of fixed β-lactams, E. cl. 144200 p99 AmpC [2] | MIC of exemplary compounds in presence of fixed β-lactams, S. aureus MSSA-7 PC-1 [3] | MIC of exemplary compounds in presence of fixed β-lactams, E. coli ESBL4 CTX-M-15 [4] | IC50 [5] | MIC of exemplary compounds in presence of fixed β-lactams, K.P. 156319 KPC-3 [6] | MIC of exemplary compounds in presence of fixed β-lactams, K.P. A-1797 KPC-2 VIM-4 [7] | IC50 (KPC-2 β-lactamase) | IC50 (SHV-5 β-lactamase)
1 | CC(C)(Cl)CCC(=O)N[C@H]1Cc2cccc(C(=O)O)c2OB1O [Example 24, (R)-3-(4-chloro-4-methylpentanamido)-2-hydroxy-3,4-dihydro-2H-benzo[e][1,2]oxaborinine-8-carboxylicacid] | < 0.1 µM | B (B represents the MIC in the presence of between 8 and 32 g/mL of a β-lactamase inhibitor) | < 0.1 µM | C (C represents the MIC in the presence of ≤4 g/mL of a β-lactamase inhibitor) | C (C represents the MIC in the presence of ≤4 g/mL of a β-lactamase inhibitor) | C (C represents the MIC in the presence of ≤4 g/mL of a β-lactamase inhibitor) | 1 to 10 µM | C (C represents the MIC in the presence of ≤4 g/mL of a β-lactamase inhibitor) | B (B represents the MIC in the presence of between 8 and 32 g/mL of a β-lactamase inhibitor) | < 0.1 µM | < 0.1 µM
2 | CCOCC(=O)N[C@H]1Cc2cccc(C(=O)O)c2OB1O [Example 25, (R)-3-(2-ethoxyacetamido)-2-hydroxy-3,4-dihydro-2H-benzo[e][1,2]oxaborinine-8-carboxylic acid] | < 0.1 µM | C (C represents the MIC in the presence of ≤4 g/mL of a β-lactamase inhibitor) | < 0.1 µM | C (C represents the MIC in the presence of ≤4 g/mL of a β-lactamase inhibitor) | C (C represents the MIC in the presence of ≤4 g/mL of a β-lactamase inhibitor) | C (C represents the MIC in the presence of ≤4 g/mL of a β-lactamase inhibitor) | 1 to 10 µM | C (C represents the MIC in the presence of ≤4 g/mL of a β-lactamase inhibitor) | B (B represents the MIC in the presence of between 8 and 32 g/mL of a β-lactamase inhibitor) | < 0.1 µM | < 0.1 µM
3 | COCCC(=O)N[C@H]1Cc2cccc(C(=O)O)c2OB1O [Example 26, (R)-2-Hydroxy-3-(3-methoxy-propionylamino)-3,4-dihydro-2H-benzo[e][1,2]oxaborinine-8-carboxylic acid] | < 0.1 µM | B (B represents the MIC in the presence of between 8 and 32 g/mL of a β-lactamase inhibitor) | < 0.1 µM | C (C represents the MIC in the presence of ≤4 g/mL of a β-lactamase inhibitor) | C (C represents the MIC in the presence of ≤4 g/mL of a β-lactamase inhibitor) | C (C represents the MIC in the presence of ≤4 g/mL of a β-lactamase inhibitor) | 1 to 10 µM | C (C represents the MIC in the presence of ≤4 g/mL of a β-lactamase inhibitor) | B (B represents the MIC in the presence of between 8 and 32 g/mL of a β-lactamase inhibitor) | < 0.1 µM | 0.1 to 1 µM
4 | COCCOCC(=O)N[C@H]1Cc2cccc(C(=O)O)c2OB1O [Example 27, (R)-2-Hydroxy-3-[2-(2-methoxy-ethoxy)-acetylamino]-3,4-dihydro-2H-benzo[e][1,2]oxaborinine-8-carboxylic acid] | < 0.1 µM | A (A represents an MIC of the fixed β-lactam antibiotic in the presence of >32 g/mL of a β-lactamase inhibitor) | < 0.1 µM | C (C represents the MIC in the presence of ≤4 g/mL of a β-lactamase inhibitor) | C (C represents the MIC in the presence of ≤4 g/mL of a β-lactamase inhibitor) | C (C represents the MIC in the presence of ≤4 g/mL of a β-lactamase inhibitor) | 0.1 to 1 µM | C (C represents the MIC in the presence of ≤4 g/mL of a β-lactamase inhibitor) | B (B represents the MIC in the presence of between 8 and 32 g/mL of a β-lactamase inhibitor) | < 0.1 µM | < 0.1 µM
5 | O=C(CCn1cccn1)N[C@H]1Cc2cccc(C(=O)O)c2OB1O [Example 28, (R)-2-Hydroxy-3-(3-pyrazol-1-yl-propionylamino)-3,4-dihydro-2H-benzo[e][1,2]oxaborinine-8-carboxylicacid] | < 0.1 µM | B (B represents the MIC in the presence of between 8 and 32 g/mL of a β-lactamase inhibitor) | < 0.1 µM | C (C represents the MIC in the presence of ≤4 g/mL of a β-lactamase inhibitor) | C (C represents the MIC in the presence of ≤4 g/mL of a β-lactamase inhibitor) | C (C represents the MIC in the presence of ≤4 g/mL of a β-lactamase inhibitor) | 1 to 10 µM | C (C represents the MIC in the presence of ≤4 g/mL of a β-lactamase inhibitor) | B (B represents the MIC in the presence of between 8 and 32 g/mL of a β-lactamase inhibitor) | < 0.1 µM | < 0.1 µM
6 | O=C(CCn1ccnc1)N[C@H]1Cc2cccc(C(=O)O)c2OB1O [Example 29, (R)-2-Hydroxy-3-(3-imidazol-1-yl-propionylamino)-3,4-dihydro-2H-benzo[e][1,2]oxaborinine-8-carboxylic acid] | < 0.1 µM | C (C represents the MIC in the presence of ≤4 g/mL of a β-lactamase inhibitor) | < 0.1 µM | C (C represents the MIC in the presence of ≤4 g/mL of a β-lactamase inhibitor) | C (C represents the MIC in the presence of ≤4 g/mL of a β-lactamase inhibitor) | C (C represents the MIC in the presence of ≤4 g/mL of a β-lactamase inhibitor) | 1 to 10 µM | C (C represents the MIC in the presence of ≤4 g/mL of a β-lactamase inhibitor) | A (A represents an MIC of the fixed β-lactam antibiotic in the presence of >32 g/mL of a β-lactamase inhibitor) | < 0.1 µM | < 0.1 µM
7 | O=C(CN1CCOC1=O)N[C@H]1Cc2cccc(C(=O)O)c2OB1O [Example 30, (R)-2-Hydroxy-3-[2-(2-oxo-oxazolidin-3-yl)-acetylamino]-3,4-dihydro-2H-benzo[e][1,2]oxaborinine-8-carboxylicacid] | < 0.1 µM | C (C represents the MIC in the presence of ≤4 g/mL of a β-lactamase inhibitor) | < 0.1 µM | C (C represents the MIC in the presence of ≤4 g/mL of a β-lactamase inhibitor) | C (C represents the MIC in the presence of ≤4 g/mL of a β-lactamase inhibitor) | C (C represents the MIC in the presence of ≤4 g/mL of a β-lactamase inhibitor) | 0.1 to 1 µM | C (C represents the MIC in the presence of ≤4 g/mL of a β-lactamase inhibitor) | C (C represents the MIC in the presence of ≤4 g/mL of a β-lactamase inhibitor) | < 0.1 µM | < 0.1 µM
